Reference: patent publication US9833497B2, “Human originated EGF domain proteins and use of the same” (CHENGDU SOURCEBIO LIMITED-LIABILITY COMPANY, priority 2013, dated 2017)

Key:
Format in all cases: cell-based
[1] = test system: Enterobacter cloacae; experiment: MIC against Gram-negative bacteria: Enterobacter cloacae; details: 5×10^5 CFU/mL
Procedure, shortened: (§1)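 Inocula prepared by growing LB cultures at 37° C to 0.5 McFarland, centrifuging at 4000×g, and resuspending in fresh medium. Final density 5×10^5 CFU/mL per well with two-fold dilutions of purified EGF domain protein; shaking incubation at 37° C.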

[2] = test system: Pseudomonas aeruginosa; experiment: MIC against Gram-negative bacteria: Pseudomonas aeruginosa; details: 5×10^5 CFU/mL
Procedure, shortened: as §1

[3] = test system: E. coli BL21; experiment: MIC against Gram-negative bacteria: E. coli BL21; details: 5×10^5 CFU/mL
Procedure, shortened: as §1

[4] = test system: Proteus mirabilis; experiment: MIC against Gram-negative bacteria: Proteus mirabilis; details: 5×10^5 CFU/mL
Procedure, shortened: as §1

[5] = test system: E. coli DH5α; experiment: Antibacterial activity: MIC and growth curve against E. coli DH5α in 96-well plate; details: minimal inhibitory concentration against E. coli DH5α; 96-well plate, 5×10^5 CFU/mL, 37° C., judged after 8 h
Procedure, shortened: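 MIC taken as lowest protein level with no bacterial growth, tracked by A600 every 30 min during 37 °C, 175 rpm culture. Two-fold protein series 50-12.5 μg/mL final, triplicate wells, against 5×10^5 CFU/mL of LB-washed mid-log cells.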

[6] = test system: Klebsiella pneumonia; experiment: MIC against Gram-negative bacteria: Klebsiella pneumonia; details: 5×10^5 CFU/mL
Procedure, shortened: as §1

[7] = test system: Moraxella catarrhalis; experiment: MIC against Gram-negative bacteria: Moraxella catarrhalis; details: 5×10^5 CFU/mL
Procedure, shortened: as §1

[8] = test system: Citrobacter diversus; experiment: MIC against Gram-negative bacteria: Citrobacter diversus; details: 5×10^5 CFU/mL
Procedure, shortened: as §1

[9] = test system: Aeromonas hydrophila; experiment: MIC against Gram-negative bacteria: Aeromonas hydrophila; details: 5×10^5 CFU/mL
Procedure, shortened: as §1

[10] = test system: Serratia marcescens; experiment: MIC against Gram-negative bacteria: Serratia marcescens; details: 5×10^5 CFU/mL
Procedure, shortened: as §1

[11] = test system: Proteus vulgaris; experiment: MIC against Gram-negative bacteria: Proteus vulgaris; details: 5×10^5 CFU/mL
Procedure, shortened: as §1

[12] = Enterobacter cloacae, 10 h cultivation at 37° C.
[13] = Pseudomonas aeruginosa, 10 h cultivation at 37° C.
[14] = E. coli BL21, 10 h cultivation at 37° C.
[15] = Proteus mirabilis, 10 h cultivation at 37° C.
[16] = Klebsiella pneumonia, 10 h cultivation at 37° C.
[17] = Moraxella catarrhalis, 10 h cultivation at 37° C.
[18] = Citrobacter diversus, 10 h cultivation at 37° C.
[19] = Aeromonas hydrophila, 10 h cultivation at 37° C.
[20] = Serratia marcescens, 10 h cultivation at 37° C.
[21] = Proteus vulgaris, 10 h cultivation at 37° C.
[22] = E. cloacae, 10 h cultivation at 37° C.
[23] = P. aeruginosa, 10 h cultivation at 37° C.
[24] = P. mirabilis, 10 h cultivation at 37° C.
[25] = K. pneumonia, 10 h cultivation at 37° C.
[26] = M. catarrhalis, 10 h cultivation at 37° C.
[27] = C. diversus, 10 h cultivation at 37° C.
[28] = A. hydrophila, 10 h cultivation at 37° C.
[29] = S. marcescens, 10 h cultivation at 37° C.
[30] = P. vulgaris, 10 h cultivation at 37° C.

Substance | MIC against E. cloacae [1, 12] | MIC against P. aeruginosa [2, 13] | MIC against E. coli BL21 [3, 14] | MIC against P. mirabilis [4, 15] | MIC [5] | MIC against K. pneumonia [6, 16] | MIC against M. catarrhalis [7, 17] | MIC against C. diversus [8, 18] | MIC against A. hydrophila [9, 19] | MIC against S. marcescens [10, 20] | MIC against P. vulgaris [11, 21] | MIC E. cloacae ([1]; 96-well plate, 37° C., 10 h) | MIC P. aeruginosa ([2]; 96-well plate, 37° C., 10 h) | MIC E. coli BL21 ([3]; 96-well plate, 37° C., 10 h) | MIC P. mirabilis ([4]; 96-well plate, 37° C., 10 h) | MIC K. pneumonia ([6]; 96-well plate, 37° C., 10 h) | MIC M. catarrhalis ([7]; 96-well plate, 37° C., 10 h) | MIC C. diversus ([8]; 96-well plate, 37° C., 10 h) | MIC A. hydrophila ([9]; 96-well plate, 37° C., 10 h) | MIC S. marcescens ([10]; 96-well plate, 37° C., 10 h) | further results
PRT1436 (AERNCRNPELNPCSVNAQCIEERQGDVTCVCGVGWAGDGYICG; listed as Homo sapiens) | 12.5 µg/mL | 12.5 µg/mL | 12.5 µg/mL | 12.5 µg/mL | 12.5 µg/mL | 50 µg/mL | 25 µg/mL | 25 µg/mL | 50 µg/mL | 12.5 µg/mL | 25 µg/mL | – | – | – | – | – | – | – | – | – | –
PRT5 (DGDQCETSPCQNQGKCKDGLGEYTCTCLEGFEGKNCE; listed as Homo sapiens) | – | – | – | – | 12.5 µg/mL | – | – | – | – | – | – | – | – | – | – | – | – | – | – | – | MIC (μg/mL) E. cloacae ([1]; Enterobacter cloacae, 96-well plate, 37° C., 10 h): 25 µg/mL; MIC (μg/mL) P. aeruginosa ([2]; Pseudomonas aeruginosa, 96-well plate, 37° C., 10 h): 25 µg/mL; MIC (μg/mL) E. coli BL21 ([3]; E. coli BL21, 96-well plate, 37° C., 10 h): 12.5 µg/mL; MIC (μg/mL) P. mirabilis ([4]; Proteus mirabilis, 96-well plate, 37° C., 10 h): 12.5 µg/mL; MIC (μg/mL) K. pneumonia ([6]; Klebsiella pneumonia, 96-well plate, 37° C., 10 h): 25 µg/mL; MIC (μg/mL) M. catarrhalis ([7]; Moraxella catarrhalis, 96-well plate, 37° C., 10 h): 25 µg/mL; MIC (μg/mL) C. diversus ([8]; Citrobacter diversus, 96-well plate, 37° C., 10 h): 25 µg/mL; MIC (μg/mL) A. hydrophila ([9]; Aeromonas hydrophila, 96-well plate, 37° C., 10 h): 12.5 µg/mL; MIC (μg/mL) S. marcescens ([10]; Serratia marcescens, 96-well plate, 37° C., 10 h): 25 µg/mL; MIC (μg/mL) P. vulgaris ([11]; Proteus vulgaris, 96-well plate, 37° C., 10 h): 12.5 µg/mL
PRT732 (SVNPCAFSRCSHLCLLSSQGPHFYSCVCPSGWSLSPDLLNCL; listed as Homo sapiens) | – | – | – | – | 12.5 µg/mL | – | – | – | – | – | – | 25 µg/mL | 12.5 µg/mL | 50 µg/mL | 25 µg/mL | 50 µg/mL | 50 µg/mL | 25 µg/mL | 12.5 µg/mL | 12.5 µg/mL | MIC P. vulgaris ([11]; 96-well plate, 37° C., 10 h): 25 µg/mL
PRT607 (CDCHPEGSLSLQCKDDGRCECREGFVGNRCDQCEENYFYNRSWPGCQE; listed as Homo sapiens) | – | – | – | – | 50 µg/mL | – | – | – | – | – | – | 50 µg/mL | 12.5 µg/mL | 25 µg/mL | 50 µg/mL | 25 µg/mL | 12.5 µg/mL | 50 µg/mL | 12.5 µg/mL | 50 µg/mL | MIC P. vulgaris ([11]; 96-well plate, 37° C., 10 h): 12.5 µg/mL
PRT199 (CLPETCNMKGICNNKHHCHCGYGWSPPYCQ; listed as Homo sapiens) | – | – | – | – | 25 µg/mL | – | – | – | – | – | – | – | – | – | – | – | – | – | – | – | MIC (μg/mL) E. cloacae [1, 22]: 12.5 µg/mL; MIC (μg/mL) P. aeruginosa [2, 23]: 12.5 µg/mL; MIC (μg/mL) E. coli BL21 [3, 14]: 12.5 µg/mL; MIC (μg/mL) P. mirabilis [4, 24]: 12.5 µg/mL; MIC (μg/mL) K. pneumonia [6, 25]: 12.5 µg/mL; MIC (μg/mL) M. catarrhalis [7, 26]: 12.5 µg/mL; MIC (μg/mL) C. diversus [8, 27]: 12.5 µg/mL; MIC (μg/mL) A. hydrophila [9, 28]: 12.5 µg/mL; MIC (μg/mL) S. marcescens [10, 29]: 25 µg/mL; MIC (μg/mL) P. vulgaris [11, 30]: 12.5 µg/mL
PRT1369 (ASGSCPDDCNDQGRCVRGRCVCFPGYTGPSC; listed as Homo sapiens) | 25 µg/mL | 12.5 µg/mL | 12.5 µg/mL | 25 µg/mL | 12.5 µg/mL | 12.5 µg/mL | 12.5 µg/mL | 12.5 µg/mL | 12.5 µg/mL | 25 µg/mL | 12.5 µg/mL | – | – | – | – | – | – | – | – | – | –
PRT595 (CSCHASGVSPMECPPGGGACLCDPVTGACPCLPNVTGLACDRCADGYWNLVPGRGCQS; listed as Homo sapiens) | – | – | – | – | 12.5 µg/mL | – | – | – | – | – | – | 12.5 µg/mL | 12.5 µg/mL | 50 µg/mL | 12.5 µg/mL | 50 µg/mL | 50 µg/mL | 12.5 µg/mL | 50 µg/mL | 25 µg/mL | MIC P. vulgaris ([11]; 96-well plate, 37° C., 10 h): 50 µg/mL
PRT774 (LTLRCDYYGCNQTADDCLNGLACDCKSDLQRPNPQSPFCV; listed as Homo sapiens) | – | – | – | – | 50 µg/mL | – | – | – | – | – | – | – | – | – | – | – | – | – | – | – | MIC (μg/mL) E. cloacae [1, 22]: 12.5 µg/mL; MIC (μg/mL) P. aeruginosa [2, 23]: 12.5 µg/mL; MIC (μg/mL) E. coli BL21 [3, 14]: 12.5 µg/mL; MIC (μg/mL) P. mirabilis [4, 24]: 12.5 µg/mL; MIC (μg/mL) K. pneumonia [6, 25]: 25 µg/mL; MIC (μg/mL) M. catarrhalis [7, 26]: 12.5 µg/mL; MIC (μg/mL) C. diversus [8, 27]: 12.5 µg/mL; MIC (μg/mL) A. hydrophila [9, 28]: 25 µg/mL; MIC (μg/mL) S. marcescens [10, 29]: 50 µg/mL; MIC (μg/mL) P. vulgaris [11, 30]: 12.5 µg/mL
PRT1394 (VRDGCPGLCFGNGRCTLDQNGWHCVCQVGWSGTGCN; listed as Homo sapiens) | 12.5 µg/mL | 12.5 µg/mL | 12.5 µg/mL | 12.5 µg/mL | 50 µg/mL | 50 µg/mL | 25 µg/mL | 50 µg/mL | 25 µg/mL | 50 µg/mL | 25 µg/mL | – | – | – | – | – | – | – | – | – | –
PRT1486 (TVKSCDCLNGGSCVSDRNFSPGSGVYLCVCLPGFHGSLCE; listed as Homo sapiens) | 12.5 µg/mL | 25 µg/mL | 12.5 µg/mL | 12.5 µg/mL | 12.5 µg/mL | 25 µg/mL | 25 µg/mL | 12.5 µg/mL | 25 µg/mL | 12.5 µg/mL | 12.5 µg/mL | – | – | – | – | – | – | – | – | – | –
PRT1386 (GSRACPRDCRGRGRCENGVCVCNAGYSGEDC; listed as Homo sapiens) | 25 µg/mL | 25 µg/mL | 12.5 µg/mL | 12.5 µg/mL | 25 µg/mL | 12.5 µg/mL | 12.5 µg/mL | 12.5 µg/mL | 12.5 µg/mL | 12.5 µg/mL | 25 µg/mL | – | – | – | – | – | – | – | – | – | –
PRT510 (CDCFLPGTDATTCDSETKKCSCSDQTGQCTCKVNVEGIHCDRCRPGKFGLDAKNPLGCSS; listed as Homo sapiens) | – | – | – | – | 50 µg/mL | – | – | – | – | – | – | – | – | – | – | – | – | – | – | – | MIC against E. cloacae ([1]; 96-well plate, 37° C., 10 h): 50 µg/mL; MIC against P. aeruginosa ([2]; 96-well plate, 37° C., 10 h): 12.5 µg/mL; MIC against E. coli BL21 ([3]; 96-well plate, 37° C., 10 h): 25 µg/mL; MIC against P. mirabilis ([4]; 96-well plate, 37° C., 10 h): 50 µg/mL; MIC against K. pneumonia ([6]; 96-well plate, 37° C., 10 h): 25 µg/mL; MIC against M. catarrhalis ([7]; 96-well plate, 37° C., 10 h): 25 µg/mL; MIC against C. diversus ([8]; 96-well plate, 37° C., 10 h): 12.5 µg/mL; MIC against A. hydrophila ([9]; 96-well plate, 37° C., 10 h): 25 µg/mL; MIC against S. marcescens ([10]; 96-well plate, 37° C., 10 h): 12.5 µg/mL; MIC against P. vulgaris ([11]; 96-well plate, 37° C., 10 h): 25 µg/mL
PRT728 (ATNPCKDNNGGCEQVCVLSHRTDNDGLGFRCKCTFGFQLDTDERHCI; listed as Homo sapiens) | – | – | – | – | 25 µg/mL | – | – | – | – | – | – | 25 µg/mL | 25 µg/mL | 25 µg/mL | 12.5 µg/mL | 12.5 µg/mL | 12.5 µg/mL | 25 µg/mL | 12.5 µg/mL | 25 µg/mL | MIC P. vulgaris ([11]; 96-well plate, 37° C., 10 h): 12.5 µg/mL
